The data set can be described thus: in vitro. The following applies: human, hela cells, % viability.

As to `O=C(NC1CC2CCC(C1)N2Cc1ccccc1)c1ccc(Cl)cc1` (stereo not shown) [CBK120192], the viability (commonly a read-out of living cells in per cent, often relative to untreated cells) at 28.5 h, 10 µM came out at 88.4%.

Consider `Cn1nccc1C(=O)C1CCN(C(=O)c2cc3c(s2)CCC3)CC1` [CBK284427], for which the viability at 28.5 h, 10 µM was 78.6%.

Turning to `Cc1ccc(-c2ncc(OCCn3ccnc3)nc2N)cc1C` [CBK145148], the viability at 28.5 h, 10 µM was found to be 102%.

As to `O=C(C1=C(O)C(=O)N(Cc2ccncc2)C1c1cccc(OCc2ccccc2)c1)c1cccs1` (stereo not shown) [CBK266247], the viability at 28.5 h, 10 µM came to 102%.

In the case of `CCc1noc(C)c1C(=O)NCc1cccnc1N(C)C1CCCCC1` [CBK306804], the viability at 28.5 h, 10 µM is 98.9%.

For the molecule `c1ccc2[nH]c(SCCN3CCOCC3)nc2c1` [CBK262593], the viability at 28.5 h, 10 µM amounted to 89%.

For `CCCn1c(N)c(C(=O)CSc2ncnc3sc4c(c23)CCCC4)c(=O)[nH]c1=O` [CBK297556], the viability at 28.5 h, 10 µM came out at 77.8%.

In the case of `CCN(CC1CCOC1)C(=O)c1cn2ccccc2n1` (stereo not shown) [CBK305653], the viability at 28.5 h, 10 µM turned out to be 83.5%.

For `N#CC1(NC(=O)c2ccn(-c3cccc(F)c3)n2)CCSC1` (stereo not shown) [CBK304566], the viability at 28.5 h, 10 µM is 106%.

On to `CCCCNS(=O)(=O)c1ccc(Cl)c(Cl)c1` [CBK044309], for which the viability at 28.5 h, 10 µM came out at 96.5%.

As to `Cc1cccc(C)c1NC(=O)CC(CN1CCN(Cc2c(C)noc2C)CC1)C(=O)O` (stereo not shown) [CBK286715], the viability at 28.5 h, 10 µM is 89.8%.

`CN1CCN(c2c(C(=O)O)cc([N+](=O)[O-])cc2[N+](=O)[O-])CC1` [CBK261519]: the viability at 28.5 h, 10 µM worked out at 100%.

On to `COc1ccc(/C=C/C(=O)O)cc1S(=O)(=O)Nc1ccc(C(=O)O)cc1` [CBK261246], for which the viability at 28.5 h, 10 µM turned out to be 108%.

As to `CCSc1nnc(-c2cccc(C)c2)n1CC1CCCO1` (stereo not shown) [CBK085413], the viability at 28.5 h, 10 µM worked out at 93.1%.

Take `CCCCN(C)c1c(CC)nc2ccc(C(=O)NC3=NC(=O)CS3)cn12` [CBK145464]: the viability at 28.5 h, 10 µM is 102%.

`Cc1ccc(OCC(=O)N2CCN(S(=O)(=O)c3ccccc3[N+](=O)[O-])CC2)cc1` [CBK264260]: the viability at 28.5 h, 10 µM turned out to be 98.5%.

On to `CCCC/C=C/c1cncc(NCCO)n1` [CBK065419], for which the viability at 28.5 h, 10 µM worked out at 109%.

Regarding `CCNC(=O)N[C@H]1C[C@@H](Cc2cc(CN(C)C)on2)C1(C)C` [CBK289310], the viability at 28.5 h, 10 µM stood at 105%.

With `CC(C)(C)NCC(O)COc1cccc2c3c(oc12)CCCC3` (stereo not shown) [CBK008871C], the viability at 28.5 h, 10 µM came to 90.2%.

On to `Cc1cc(COc2nccnc2N2CCCC2)no1` [CBK115755], for which the viability at 28.5 h, 10 µM is 91.3%.

For the molecule `Cc1cc(NC(=O)CCCc2ccccc2)nc2c1c(=O)oc1ccccc12` [CBK291204], the viability at 28.5 h, 10 µM is 109%.

For the molecule `CCc1nc2ccc(C(=O)NCCN3CCOCC3)cn2c1N(C)Cc1cc2ccccc2s1` [CBK146561], the viability at 28.5 h, 10 µM amounted to 101%.

For `CCC(CC)C(=O)N1CCCC(c2cc3cccnc3[nH]2)C1` (stereo not shown) [CBK284926], the viability at 28.5 h, 10 µM was 100%.

As for `Cc1cn(-c2ccc(Br)cc2)[nH]c1=O` [CBK288513], the viability at 28.5 h, 10 µM came to 92.7%.

In the case of `Cc1nccn1CC(=O)N1CCCC1(C)C(=O)NC1CCCC1` (stereo not shown) [CBK281539], the viability at 28.5 h, 10 µM came out at 98.7%.

As to `NC(=O)COc1cccc(/C=C2/SC(Nc3cccc(C(=O)O)c3)=NC2=O)c1` [CBK265027], the viability at 28.5 h, 10 µM came to 104%.

Take `CC(=O)Nc1ccc2nc(NC(=O)c3ccc4c(c3)OCCO4)sc2c1` [CBK287571]: the viability at 28.5 h, 10 µM is 101%.

Take `COC(=O)c1sc2ncccc2c1NS(=O)(=O)c1cc(Br)ccc1OC` [CBK049971]: the viability at 28.5 h, 10 µM turned out to be 91.9%.

On to `COc1ccc(C(=O)N2CCC3(CCCN(C(=O)c4c(F)cccc4F)C3)C2)cc1OC` (stereo not shown) [CBK131669], for which the viability at 28.5 h, 10 µM is 94.1%.

With `O=C(Nc1ncc(Cc2ccc(F)cc2)s1)c1ccc(-c2ccc(F)cc2)o1` [CBK300522], the viability at 28.5 h, 10 µM is 99.5%.

On to `CCCCn1nc(C2CC2)nc1-c1cnn2cc(C)cnc12` [CBK306683], for which the viability at 28.5 h, 10 µM is 89.6%.

`O=C(c1ccccc1)N1CCN(C(=O)c2ccco2)CC1` [CBK068314]: the viability at 28.5 h, 10 µM turned out to be 96.6%.

As for `CN1CCN(C(=O)c2ccsc2NS(=O)(=O)/C=C/c2ccccc2)CC1` [CBK042267], the viability at 28.5 h, 10 µM is 104%.

On to `CC(=O)Nc1cccc(NC(=O)CN(CCO)C2CCCCC2)c1` [CBK304239], for which the viability at 28.5 h, 10 µM is 85.7%.

In the case of `CC(C)(C)OC(=O)N1CCN(c2cncc(OC3CSCc4ccccc43)n2)CC1` (stereo not shown) [CBK172354], the viability at 28.5 h, 10 µM was found to be 105%.

`Cc1cccc(CN2CC[C@H]3[C@@H](C2)[C@H](c2ccsc2)CN3C(=O)c2ccc(F)cc2)c1` [CBK285639]: the viability at 28.5 h, 10 µM came out at 94.9%.

`CN(Cc1ccsc1)C(=O)c1cccc(S(=O)(=O)NC(C)(C)C)c1` [CBK305425]: the viability at 28.5 h, 10 µM turned out to be 81.2%.

In the case of `COc1ccccc1-c1cccc(NCC(c2cccnc2)N(C)C)n1` (stereo not shown) [CBK037770], the viability at 28.5 h, 10 µM is 103%.

For `O=C(Nc1nc2ccccc2s1)c1cccnc1Cl` [CBK071983], the viability at 28.5 h, 10 µM came to 108%.

For the molecule `COc1ccccc1C1CCCN1Cc1c(C)nc2ccccn12` (stereo not shown) [CBK281995], the viability at 28.5 h, 10 µM worked out at 91.9%.

For `Cc1nn(-c2ccccc2)c2[nH]c(=O)c(CNC(C)(C)C)cc12` [CBK282921], the viability at 28.5 h, 10 µM is 101%.

In the case of `O=C(COc1cccnc1)N[C@H]1C2CCCCC2[C@@H]1c1ccccc1` (stereo partly shown) [CBK282951], the viability at 28.5 h, 10 µM was found to be 100%.

Consider `O=C(c1cccnc1)C1CCN(C(=O)c2cc(F)cc(F)c2)CC1` [CBK283746], for which the viability at 28.5 h, 10 µM amounted to 102%.

Turning to `O=C(CCOc1ccccc1)Nc1cnc(-c2ccc(F)cc2)c(-c2ccco2)n1` [CBK036967], the viability at 28.5 h, 10 µM was found to be 93.1%.

`O=C(CN1CCCC2(CCN(C(=O)Cc3c[nH]c4ccccc34)C2)C1)Nc1ccc(F)c(Cl)c1` (stereo not shown) [CBK132047]: the viability at 28.5 h, 10 µM amounted to 108%.

Turning to `O=C(O)C(Cc1c[nH]c2ccccc12)N1C(=O)C2C3c4ccccc4C(c4ccccc43)C2C1=O` (stereo not shown) [CBK265377], the viability at 28.5 h, 10 µM stood at 91.4%.

Regarding `O=C(COc1ccc2ccccc2c1)Nc1ccc(S(=O)(=O)N2CCc3ccccc32)cc1` [CBK263802], the viability at 28.5 h, 10 µM was determined as 91.5%.

With `Cc1ccc2[nH]c3c(c2c1)CCNCC3` [CBK004811], the viability at 28.5 h, 10 µM turned out to be 98.3%.

Regarding `COc1ccccc1N(CC(=O)NC(C(C)C)C(C)C)S(=O)(=O)c1ccccc1` [CBK101384], the viability at 28.5 h, 10 µM is 91.4%.

Turning to `O=C1CCC(=O)N1CCOc1nccnc1OC1CCN(Cc2ccccc2F)CC1` [CBK084337], the viability at 28.5 h, 10 µM came out at 96.4%.

Consider `CCc1nn(CC(=O)NC(C)(C)C)c(=O)c2cc3sccc3n12` [CBK284056], for which the viability at 28.5 h, 10 µM worked out at 73.8%.

As for `CC(C)C(=O)N1CCC(c2nc3ccccn3c2NC(C)(C)C)CC1` [CBK284745], the viability at 28.5 h, 10 µM came out at 95%.

For `O=C(NCc1ccc(F)cc1)[C@H]1CN2CCC1C[C@@H]2Cn1cc(C2(O)CCCC2)nn1` (stereo partly shown) [CBK289093], the viability at 28.5 h, 10 µM worked out at 109%.

Turning to `O=S(=O)(/N=C(/NS(=O)(=O)c1cccc2ccccc12)c1ccccc1)c1ccccc1` [CBK263105], the viability at 28.5 h, 10 µM was determined as 112%.

Consider `CN(Cc1ccc(-c2ccc(S(C)(=O)=O)cc2)nc1)C1CCN(C(=O)c2ccc(Cl)c(Cl)c2)CC1` [CBK164101T], for which the viability at 28.5 h, 10 µM was 104%.

Turning to `O=C(NCc1ccco1)[C@@H]1C=CCN1C(=O)NCc1ccccc1` [CBK284293], the viability at 28.5 h, 10 µM came out at 93%.

Turning to `OC1(c2cccnc2F)CCN(Cc2ccc(Cl)cc2)CC1` [CBK284368], the viability at 28.5 h, 10 µM came to 102%.

Regarding `Cc1cc(CSc2cccs2)no1` [CBK002635], the viability at 28.5 h, 10 µM stood at 91.8%.

As to `O=C(C[C@@H]1O[C@H](CNS(=O)(=O)c2ccccc2)[C@@H](O)[C@H]1O)N1CCc2ccccc21` [CBK288916], the viability at 28.5 h, 10 µM turned out to be 91.2%.

Take `Cc1nc(NS(=O)(=O)c2ccccc2)sc1NC(=O)Nn1cnnc1` [CBK266699]: the viability at 28.5 h, 10 µM was 85.4%.

Turning to `Cc1ccc(C(NC(=O)C2CCN(Cc3ccc(Cl)cc3)CC2)c2ccccn2)cc1` (stereo not shown) [CBK148007], the viability at 28.5 h, 10 µM is 103%.

`Cc1ccccc1Nc1nc(N)nc(CN2CCN(C)CC2)n1` [CBK304217]: the viability at 28.5 h, 10 µM is 89.9%.

Turning to `O=C(CC(CN1CCCN(c2ncccn2)CC1)C(=O)O)NCc1ccccc1` (stereo not shown) [CBK286856], the viability at 28.5 h, 10 µM worked out at 87.2%.

With `c1ccc2c(c1)nc(N1CCOCC1)n2CCN1CCOCC1` [CBK269841], the viability at 28.5 h, 10 µM stood at 99.6%.

As to `COc1ccc(-n2c(C)c([N+](=O)[O-])c3ccc(O)cc32)cc1` [CBK115330], the viability at 28.5 h, 10 µM came to 85%.

`Cc1ccc(CN2CCCC(n3c(=O)oc4ccccc43)C2)o1` (stereo not shown) [CBK284871]: the viability at 28.5 h, 10 µM was found to be 95.6%.

For `Fc1ccccc1/C=N/Nc1nccnc1Cl` [CBK261711], the viability at 28.5 h, 10 µM stood at 87.8%.

For the molecule `O=C(O)C1CC(O)CN1S(=O)(=O)c1ccc(Cl)cc1` (stereo not shown) [CBK266106], the viability at 28.5 h, 10 µM stood at 86.8%.

Turning to `O=C(c1ccco1)N1CCN(c2cc(-c3cc4ccccc4o3)ncn2)CC1` [CBK091114], the viability at 28.5 h, 10 µM stood at 102%.

Take `COc1cc(-c2ccc(C(=O)N(C)CCN(C)C)c(N(C)C)n2)cc(OC)c1OC` [CBK106076]: the viability at 28.5 h, 10 µM came out at 109%.

Regarding `O=S(=O)(Nc1cccc(C(F)(F)F)c1)c1ccc(OC(F)(F)F)cc1` [CBK043554], the viability at 28.5 h, 10 µM came to 86.3%.

Consider `CN1CCC(N2CCN(C(=O)NCCOc3ccccc3)CC2)CC1` [CBK156098], for which the viability at 28.5 h, 10 µM came to 86.9%.

For the molecule `CCC1(CC)OC(NC23CC4CC(CC(O)(C4)C2)C3)=NC1=O` [CBK107938], the viability at 28.5 h, 10 µM was found to be 99.1%.

Turning to `CN(C)CCNCc1cccc(OCc2ccccc2)c1` [CBK278216C], the viability at 28.5 h, 10 µM was 89.7%.

Take `CCOC(=O)c1c(NC(=O)CN2CCOCC2)sc2c1CCC2` [CBK262548]: the viability at 28.5 h, 10 µM amounted to 102%.

Turning to `CCCOC1CCCN(Cc2cn(CC(N)=O)c3ccccc23)C1` (stereo not shown) [CBK282796], the viability at 28.5 h, 10 µM was found to be 105%.

For the molecule `c1ccc(CNc2nccn3ccnc23)nc1` [CBK037526], the viability at 28.5 h, 10 µM came to 104%.

For `CC(C)N(C(=O)Cn1cccc2cc(C(F)F)nc1-2)C(C)C` [CBK285012], the viability at 28.5 h, 10 µM worked out at 85.5%.

Consider `O=C(O)c1ccc2c(c1)C(=O)N(c1ccc3c(c1)Cc1cc(N4C(=O)c5ccc(C(=O)O)cc5C4=O)ccc1-3)C2=O` [CBK261333], for which the viability at 28.5 h, 10 µM worked out at 90.5%.
